Drawing on ChEMBL document CHEMBL1128530, “Alpha- and beta-adrenoceptors: from the gene to the clinic. 1. Molecular biology and adrenoceptor subclassification” (J Med Chem, 1995), this text covers Ki for three compounds.

Assay [1] has as its target T1, Alpha-1A adrenergic receptor (Homo sapiens, UniProt P35348).
T1 sequence (P35348 whole entry): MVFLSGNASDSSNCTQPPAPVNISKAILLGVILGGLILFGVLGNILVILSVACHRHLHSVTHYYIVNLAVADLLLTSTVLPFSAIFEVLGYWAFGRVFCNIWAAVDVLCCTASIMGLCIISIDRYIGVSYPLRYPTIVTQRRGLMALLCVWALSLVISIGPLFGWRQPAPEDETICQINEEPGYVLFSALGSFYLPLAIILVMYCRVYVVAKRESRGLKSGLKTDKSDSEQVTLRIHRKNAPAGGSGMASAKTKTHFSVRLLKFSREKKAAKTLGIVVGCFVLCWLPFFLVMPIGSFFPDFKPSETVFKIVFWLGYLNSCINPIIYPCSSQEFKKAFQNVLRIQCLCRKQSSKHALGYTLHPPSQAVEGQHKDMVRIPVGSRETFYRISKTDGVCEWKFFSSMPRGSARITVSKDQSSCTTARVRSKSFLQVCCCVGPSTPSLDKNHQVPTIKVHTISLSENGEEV
As to the kind of experiment: The compound was tested for binding affinity against Alpha-1A adrenergic receptor from human clones.

Assay [2] addresses T2, Alpha-1A adrenergic receptor (Bos taurus, UniProt P18130).
T2 sequence (P18130 whole entry): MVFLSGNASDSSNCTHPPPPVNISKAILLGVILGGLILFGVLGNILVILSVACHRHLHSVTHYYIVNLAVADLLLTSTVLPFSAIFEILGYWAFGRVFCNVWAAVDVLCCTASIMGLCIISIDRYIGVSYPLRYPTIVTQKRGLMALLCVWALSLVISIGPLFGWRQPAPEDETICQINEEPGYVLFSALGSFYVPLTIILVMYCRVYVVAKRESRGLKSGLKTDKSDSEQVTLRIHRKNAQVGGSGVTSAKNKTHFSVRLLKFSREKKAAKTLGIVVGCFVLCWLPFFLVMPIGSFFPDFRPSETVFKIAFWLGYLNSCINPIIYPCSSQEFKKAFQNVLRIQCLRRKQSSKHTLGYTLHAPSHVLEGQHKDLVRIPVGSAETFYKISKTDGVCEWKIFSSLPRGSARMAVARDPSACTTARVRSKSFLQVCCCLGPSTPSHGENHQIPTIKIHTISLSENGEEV
As to the kind of experiment: The compound was tested for binding affinity against Alpha-1A adrenergic receptor from bovine clones.

The target of assay [3] is T3, Alpha-1B adrenergic receptor (Homo sapiens, UniProt P35368).
T3 sequence (P35368 whole entry): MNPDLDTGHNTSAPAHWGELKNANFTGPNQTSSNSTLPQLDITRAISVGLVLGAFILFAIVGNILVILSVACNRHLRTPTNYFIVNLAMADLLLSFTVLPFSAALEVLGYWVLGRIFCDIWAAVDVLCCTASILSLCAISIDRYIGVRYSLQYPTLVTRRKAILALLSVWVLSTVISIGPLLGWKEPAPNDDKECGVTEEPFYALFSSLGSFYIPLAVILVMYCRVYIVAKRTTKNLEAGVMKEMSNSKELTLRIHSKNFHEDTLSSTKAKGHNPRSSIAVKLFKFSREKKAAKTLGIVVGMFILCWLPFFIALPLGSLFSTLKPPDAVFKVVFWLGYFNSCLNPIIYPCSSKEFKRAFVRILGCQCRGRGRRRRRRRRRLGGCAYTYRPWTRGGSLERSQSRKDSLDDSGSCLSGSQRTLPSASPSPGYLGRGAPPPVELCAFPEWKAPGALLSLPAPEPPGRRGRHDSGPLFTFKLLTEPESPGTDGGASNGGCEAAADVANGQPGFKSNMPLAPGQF
As to the kind of experiment: The compound was tested for binding affinity against Alpha-1B adrenergic receptor, from human clones.

Assay [4] deals with Alpha-1B adrenergic receptor (Rattus norvegicus, UniProt P15823). The assay can be described thus: Overall binding displacement in tissues containing only the Alpha-1B adrenergic receptor (rat spleen, rat liver). Format: tissue-based.
Alpha-1B adrenergic receptor (Rattus norvegicus, UniProt P15823), sequence (P15823 whole entry, looked up): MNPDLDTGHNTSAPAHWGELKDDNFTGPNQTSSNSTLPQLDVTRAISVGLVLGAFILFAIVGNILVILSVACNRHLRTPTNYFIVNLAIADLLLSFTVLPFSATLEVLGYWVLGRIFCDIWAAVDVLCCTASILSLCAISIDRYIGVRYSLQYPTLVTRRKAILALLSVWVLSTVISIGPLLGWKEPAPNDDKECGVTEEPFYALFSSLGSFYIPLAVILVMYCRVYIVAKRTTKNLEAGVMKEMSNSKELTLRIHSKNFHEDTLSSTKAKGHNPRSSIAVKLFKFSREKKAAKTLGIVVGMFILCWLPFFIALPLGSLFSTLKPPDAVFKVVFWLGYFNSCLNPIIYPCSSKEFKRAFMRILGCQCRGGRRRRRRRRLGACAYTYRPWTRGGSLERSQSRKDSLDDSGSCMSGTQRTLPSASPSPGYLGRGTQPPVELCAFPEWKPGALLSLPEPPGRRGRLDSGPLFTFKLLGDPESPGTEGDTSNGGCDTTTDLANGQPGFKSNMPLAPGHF
Assay [5] deals with T4, Alpha-1A adrenergic receptor (Rattus norvegicus, UniProt P43140).
T4 sequence (P43140 whole entry): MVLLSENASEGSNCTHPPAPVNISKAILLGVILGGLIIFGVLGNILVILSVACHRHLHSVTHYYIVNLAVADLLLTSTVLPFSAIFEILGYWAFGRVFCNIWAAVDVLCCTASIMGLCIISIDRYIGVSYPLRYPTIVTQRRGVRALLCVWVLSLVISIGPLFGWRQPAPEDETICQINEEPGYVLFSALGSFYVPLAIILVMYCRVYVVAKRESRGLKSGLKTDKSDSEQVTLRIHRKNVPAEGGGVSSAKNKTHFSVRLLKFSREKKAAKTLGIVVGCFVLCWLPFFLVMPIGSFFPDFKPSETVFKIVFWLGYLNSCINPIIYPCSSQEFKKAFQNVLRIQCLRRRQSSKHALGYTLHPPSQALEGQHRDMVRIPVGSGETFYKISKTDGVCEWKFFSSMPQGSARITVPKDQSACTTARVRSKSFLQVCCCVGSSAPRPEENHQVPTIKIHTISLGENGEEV
As to the kind of experiment: Overall binding displacement in tissues containing only the Alpha-1A adrenergic receptor from rat submaxillary gland.

The target in assay [6] is T5, Alpha-2A adrenergic receptor (Rattus norvegicus, UniProt P22909).
T5 sequence (P22909 whole entry): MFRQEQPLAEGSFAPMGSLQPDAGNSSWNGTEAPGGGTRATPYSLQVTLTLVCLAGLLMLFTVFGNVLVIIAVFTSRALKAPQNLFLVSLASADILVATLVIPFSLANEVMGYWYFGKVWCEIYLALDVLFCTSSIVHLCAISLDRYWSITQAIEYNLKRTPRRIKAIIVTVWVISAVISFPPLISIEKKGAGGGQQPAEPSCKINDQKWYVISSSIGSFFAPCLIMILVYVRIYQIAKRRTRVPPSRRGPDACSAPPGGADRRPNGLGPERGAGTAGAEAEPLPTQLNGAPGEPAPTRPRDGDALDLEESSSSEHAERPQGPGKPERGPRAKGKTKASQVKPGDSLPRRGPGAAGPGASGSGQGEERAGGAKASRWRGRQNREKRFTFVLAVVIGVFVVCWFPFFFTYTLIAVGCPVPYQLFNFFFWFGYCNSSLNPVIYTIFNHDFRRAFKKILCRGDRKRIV
As to the kind of experiment: The compound was tested for binding affinity against alpha-2d-adrenoceptor, from rat clones.

Assay [7] deals with T1, Alpha-1A adrenergic receptor. The assay can be described thus: Binding affinity against Alpha-1A adrenergic receptor from human clone.
Assay [8] has as its target T2, Alpha-1A adrenergic receptor. The assay can be described thus: Binding affinity against Alpha-1A adrenergic receptor from bovine clone.

Broadly, the Ki is a dissociation constant, usually derived from enzyme kinetics or from competition with a known ligand. Lower therefore signals tighter binding. Turning to `O=C(NC1CCN(CCc2c[nH]c3ccccc23)CC1)c1ccccc1` [INDORAMIN], the Ki in assay [1] came out at 3.7 nM; in assay [2] it was 12 nM; in assay [3], 29 nM.
With `COc1ccccc1N1CCN(CCCNc2c(C)c(=O)n(C)c(=O)n2C)CC1`, the inhibitory constant (Ki) is 96 nM in assay [4]; 2.3 nM in assay [1]; 4.4 nM in assay [2]; 92 nM in assay [3]; 0.7 nM in assay [5].
On to `COc1cccc(OC)c1OCCNCC1COc2ccccc2O1` (configuration not stated), for which the inhibition constant Ki in assay [6] is 46 nM; in assay [7] it was 0.37 nM; in assay [8], 0.35 nM; in assay [5], 0.08 nM.
